Measured values: patent publication US20230080054A1 (ILDONG PHARMACEUTICAL CO., LTD., priority 2021, published 2023)

Tested on: platelet-rich plasma (PRP)
Assay: Recalcification time of rat platelet-rich plasma
Conditions: 30 μM, vs 2% DMSO control
Experimental: Example 5: Recalcification Time
1. Materials and Instruments
Isoflurane (Hana Pharm, cat. #9008), Isotonic Sodium Chloride Injection (Daihan Pharm, cat. #331), Citrate-dextrose solution (Sigma-Aldrich, cat. #C3821), Calcium chloride solution (Sigma-Aldrich, cat. #21115), 22G Syringe 10 mL (Koreavaccine), Dimethyl sulfoxide (Sigma-Aldrich, cat. #D5879), Apixaban (AK scientific, cat. #X1060), 96 Well Cell Culture Plates (SPL Life Sciences, cat. #30096), Synergy H4 Hybrid Microplate Reader (BioTek), Combi R515 Multi-purpose Centrifuge (Hanil Scientific), BS-06 Shaking & Heating Baths (JEIO TECH), and PST-60HL-4 Plate Shaker-Thermostat (Bio-San)
Seven-week-old male SD Rat (ORIENT BIO.) were maintained under controlled conditions of temperature (22±2° C.) and 12-h light/12-h dark cycle. Rats were housed in the pathogen-free facility of the Laboratory Animal Research Center in Ildong Pharmaceutical Co. Ltd. All procedures on animals were conducted in accordance with the relevant national regulatory guidelines and individual experiments approved by the Ildong Pharmaceutical Co. Ltd., Institutional Animal Care and Use Committee (IACUC) (approval No.: A2106-3, 2108-4).
The ability of test compounds to interfere with plasma coagulation, in the presence of platelets, was analyzing by measuring the recalcification time of rat plasma. The blood of animals was collected into 15 mL tubes containing Citrate-dextrose solution (9:1 v/v) before performing the assays. For recalcification time, platelet-rich plasma (PRP) samples were obtained by centrifugation at 360×g for 10 minutes. And the PRP were preincubated for 5 minutes (37° C.). In a 96 well microplate, test compounds (2 μL) were treated in 98 μL of platelet rich plasma. After mixing with a pipette, it was incubated at 37° C. for 15 minutes. The reaction was started by addition of 200 μL of pre-warmed CaCl2) (16 mM). Immediately, put the microplate in a microplate reader and the signals were measured by the following steps.
(1) 405 nm wavelength absorbance signals were recorded in every 10 seconds at 37° C.
(2) Basal absorbance signals were recorded for 0 second.
The signal variance of each of the test compounds was obtained by the following step.
(1) Background signals (t=O) were subtracted from recording values, and the resulting values were converted to change values. The values at 0 second were set to be zero.
The retardation time of test compound were calculated by the following formula:
Retardation time (sec)=[log EC50 (test sample)−log EC50 (DMSO control)]
As described above, a DMSO control group is a group to which 2% DMSO was treated.
The assay result is shown in Table 5, where compounds (30 μM) having less than 20 seconds of retardation time are marked by ‘C’; the compounds (30 μM) having retardation time of 20 seconds or more to less than 50 seconds are marked by ‘B’; and the compounds (30 μM) having retardation time of 50 seconds or more are marked by ‘A’.

SMILES	Inhibition Level (retardation time, recalcification time)
O=C(N[C@@H]1C[C@H]1c1ccccc1)c1cccc(Nc2ncc(-c3cccc(F)c3)cn2)c1 [Compound 119, 3-{[5-(3-fluorophenyl)pyrimidin-2-yl]amino}-N-[(1R,2S)-2-phenylcyclopropyl]benzamide]	C (compounds (30 μM) having less than 20 seconds of retardation time)
O=C(NCCC1CCCCC1)c1cccc(Nc2ncc(-c3cccc(F)c3)cn2)c1 [Compound 80, N-(2-cyclohexylethyl)-3-{[5-(3-fluorophenyl)pyrimidin-2-yl]amino}benzamide]	C (compounds (30 μM) having less than 20 seconds of retardation time)
O=C(N[C@@H]1C[C@H]1c1ccccc1)c1cccc(Nc2ccc(-c3cccc(F)c3)cn2)c1 [Compound 123, 3-{[5-(3-fluorophenyl)pyridin-2-yl]amino}-N-[(1R,2S)-2-phenylcyclopropyl]benzamide]	B (the compounds (30 μM) having retardation time of 20 seconds or more to less than 50 seconds)
O=C(Nc1cccc(F)c1)c1cccc(Nc2ccc(-c3cccc(F)c3)cn2)c1 [Compound 122, N-(3-fluorophenyl)-3-{[5-(3-fluorophenyl)pyridin-2-yl]amino}benzamide]	B (the compounds (30 μM) having retardation time of 20 seconds or more to less than 50 seconds)
O=C(NCCc1cccc(C(F)(F)F)c1)c1cccc(Nc2ncc(-c3cccc(F)c3)cn2)c1 [Compound 79, 3-{[5-(3-fluorophenyl)pyrimidin-2-yl]amino}-N-{2-[3-(trifluoromethyl)phenyl]ethyl}benzamide]	C (compounds (30 μM) having less than 20 seconds of retardation time)
O=C(Nc1ccc(Cl)c(Cl)c1)c1cccc(Nc2ncc(-c3cccc(F)c3)cn2)c1 [Compound 118, N-(3,4-dichlorophenyl)-3-{[5-(3-fluorophenyl)pyrimidin-2-yl]amino}benzamide]	C (compounds (30 μM) having less than 20 seconds of retardation time)
O=C(N[C@@H]1C[C@H]1c1ccccc1)c1cccc(Nc2ccc(-c3ccccc3)nn2)c1 [Compound 68, N-[(1R,2S)-2-phenylcyclopropyl]-3-[(6-phenylpyridazin-3-yl)amino]benzamide]	A (the compounds (30 μM) having retardation time of 50 seconds or more)
